Data on two compounds can be found in patent publication US10584159B2, “Renilla based biosensors for monitoring biomolecule localization and trafficking in cells” (The Royal Institution for the Advancement of …, priority 2014, dated 2020).

Starred links: 1 amine or outer side, 2 acyl side, 3 side chain; linkers in the order of their positions; H or OH if unused. Positions of bridges follow the written chain, without caps; N, C: chain ends. Non-standard residues stand in square brackets, D forms with d. Residues, ends and D or L forms follow the SMILES beside them. No end group written: not given here. *: point of attachment. Leu(3R-OH,Nα-propionyl) = CCC(=O)N[C@H](C(=O)*)[C@H](O)C(C)C; X1 = CC(C)[C@@H](O[*:3])[C@H](N[*:1])C(=O)[*:2]; NMeT = CN[C@H](C(=O)O)[C@@H](C)O; dPhLac = O=C(O)[C@H](O)Cc1ccccc1; NMeA = CN[C@@H](C)C(=O)O; NMeDha = C=C(NC)C(=O)O

Common to all, as to format: cell-based
Test [1] addresses T1, AT1R (Homo sapiens, UniProt P30556).
T1 sequence (P30556 with tags, fused parts or gaps): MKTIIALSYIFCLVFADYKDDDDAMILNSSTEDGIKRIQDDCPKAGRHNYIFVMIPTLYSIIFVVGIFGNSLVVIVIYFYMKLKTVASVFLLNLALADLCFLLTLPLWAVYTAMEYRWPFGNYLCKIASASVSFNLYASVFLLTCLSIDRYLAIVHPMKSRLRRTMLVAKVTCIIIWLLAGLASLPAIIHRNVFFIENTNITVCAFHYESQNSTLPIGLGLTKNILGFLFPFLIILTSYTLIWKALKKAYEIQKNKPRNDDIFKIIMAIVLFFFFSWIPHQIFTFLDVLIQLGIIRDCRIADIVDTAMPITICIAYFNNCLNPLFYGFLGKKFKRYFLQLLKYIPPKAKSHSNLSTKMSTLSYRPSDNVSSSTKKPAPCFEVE
The test can be described thus: AT1R endocytosis BRET at plasma membrane (AT1R-RlucII/lyn-rGFP). Also noted: signal peptide-Flag-human AT1R (spFlag-AT1R); signal peptide (N); expressed in transfected cells; host or cells: HEK293SL (HEK293 for the screen). The protocol: (§1) BRET measurements for FIGS. 1B to 9D, 25D to 25F. The following day of transfection, cells were detached and replated onto poly-ornithine coated white 96-well plate at a density of 25,000 cells per well. The next day, cells were washed once with pre-warmed Tyrode's buffer (140 mM NaCl, 2.7 mM KCl, 1 mM CaCl2, 12 mM NaHCO3, 5.6 mM D-glucose, 0.5 mM MgCl2, 0.37 mM NaH2PO4, 25 mM HEPES, pH 7.4), and then stimulated with either various concentrations of ligands in Tyrode's buffer for the indicated time, or single concentration of ligands for various times at 37° C. For recycling experiment, after stimulating the cells with the ligands for 30 min at 37° C., they were washed either three times with ice-cold Tyrode's buffer or once with Tyrode's buffer/three times with acid (50 mM sodium citrate, pH 4.0)/two times with Tyrode's buffer. All the washing steps were performed on ice. […] The cell-permeable substrate, coelenterazine 400a was added at a final concentration of 5 μM in Tyrode's buffer 3-4 min before BRET measurements. […] The BRET signal was determined by calculating the ratio of the light intensity emitted by the GFP10 or rGFP over the light intensity emitted by the RlucII. All the BRET measurements were performed in triplicate at 37° C.
(§2) Data Analysis. Estimation of the t1/2 and the EC50 values for ligand-mediated endocytosis were calculated using the GraphPad® Prism curve fitting program The curves presented throughout this study, representing the best fits, and were generated using this GraphPad® Prism program as well.

In test [2] the target is T2, AT1R (Homo sapiens, UniProt P30556).
T2 construct: expressed in transfected cells; host or cells: HEK293SL
T2 sequence (P30556 1-359): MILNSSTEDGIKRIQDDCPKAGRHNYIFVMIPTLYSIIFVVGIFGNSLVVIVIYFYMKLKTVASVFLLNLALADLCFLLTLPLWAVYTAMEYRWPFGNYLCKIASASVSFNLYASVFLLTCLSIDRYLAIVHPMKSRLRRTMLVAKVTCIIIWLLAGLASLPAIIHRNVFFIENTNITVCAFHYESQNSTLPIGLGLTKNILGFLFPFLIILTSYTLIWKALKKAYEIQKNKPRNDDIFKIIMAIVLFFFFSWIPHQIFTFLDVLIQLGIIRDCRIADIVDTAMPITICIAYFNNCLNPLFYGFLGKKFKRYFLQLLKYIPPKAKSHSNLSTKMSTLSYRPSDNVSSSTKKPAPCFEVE
Put plainly: PKN-based RhoA activation BRET assay (PKN-crib-RlucII/rGFP-CAAX) with AT1R. The protocol: as §1
PKN-based RhoA activation assay. For FIGS. 25B-D, HEK293SL cells were grown in DMEM supplemented with 6% fetal bovine serum (FBS) and 20 μg/ml gentamycin, at 37° C. Cells were seeded at a density of 7.5×10^5 cells per 100 mm dishes and were transiently transfected the next day with constructs encoding AT1R (3 μg) along with PKN-crib-RlucII (90 ng) and rGFP-CAAX (480 ng) using calcium phosphate method as described previously. After 24 h, cells were detached and seeded onto poly-ornithine-coated 96-well white plates at a density of 25 000 cells per well in media. The next day, cells were washed once with Tyrode's buffer and left in 80 μl of Tyrode's buffer at 37° C. When indicated, cells were treated with Ubo-Qic 100 nM for 30 min or C3 toxin for 3 μg/ml (in FIG. 25I), 4 hours at 37° C. Cell stimulation and BRET measurements were done at RT. BRET signals were monitored by addition of Coel-400a to a final concentration of 5 μM using a Synergy2 (BioTek®) microplate reader. […] For FIG. 25B, a transfection mix of 200 ng of TPαR, 20 ng PKN-RlucII, 600 ng CAAX-rGFP, complemented to 2 μg with ssDNA and PEI at a ratio of PEI:DNA of 3:1, is added to 3 ml of Hek293SL (350 000 cells/ml). Cells were seeded on poly-D-lysine pretreated plates. […] Cells were stimulated for 2 min with the indicated doses of U46619. […] For FIGS. 25I and J, a transfection mix of 200 ng of TPαR, 20 ng PKN-RlucII, 600 ng CAAX-rGFP, complemented to 2 μg with ssDNA and PEI at a ratio of PEI:DNA of 3:1, is added to 3 ml of Hek293SL (350,000 cells/ml). Cells were seeded on poly-D-lysine pretreated plates. 24 h post-transfection, the Rho inhibitor (CT04; Cytoskeleton, Inc) was added when indicated, overnight at final concentration 2 μg/ml. 48 h post-transfection, cells were washed and preincubated in Tyrode +1 mM CaCl2 at 37° C. for 60 min then treated, as indicated, with 100 nM of U46619 or 1 μg/ml of Rho activator II (CN03; Cytoskeleton, Inc) for 1 min at 37° C. […] BRET was measured at 37° C., using a Tristar Microplate Reader (Berthold Technologies).
Background: Bioluminescence resonance energy transfer reports proximity on the nanometre scale.

The target of test [3] is T1, AT1R. Put plainly: AT1R trafficking to endosomes BRET (AT1R-RlucII/rGFP-endofinFYVE). Also noted: expressed in transfected cells; host or cells: HEK293SL (HEK293 for the screen). The protocol: as §1, §2
Where [4] appears, read: 100 nM Ubo, 30 min pre-incubation.

For `C=C1C(=O)N[C@@H](C)C(=O)N(C)[C@@H](C)C(=O)N[C@@H]([C@H](OC(=O)[C@@H](NC(=O)CC)[C@H](O)C(C)C)C(C)C)C(=O)N(C)[C@@H]([C@@H](C)OC)C(=O)O[C@H](C(C)C)[C@H](NC(C)=O)C(=O)O[C@H](Cc2ccccc2)C(=O)N1C` [Ubo-QIC] (Ac-[X1][dPhLac][NMeDha]A[NMeA][X1](Leu(3R-OH,Nα-propionyl))[NMeT](Me); ester 1-C), the “effect on AngII-dependent AT1R internalization” value on AT1R [1] (setting [4]) was “did not prevent”. At AT1R [2] (100 nM Ubo, 100 nM AngII 70 s), the “effect on AngII-mediated BRET increase (Rho sensor)” value is given as “partially blocked”. Besides, at AT1R [3] (setting [4]), the “effect on DVG- and SI-mediated accumulation of receptors in endosomes” value is reported as “had no effect”; the “reduction of targeting of AngII-bound AT1R to Rab5 containing endosomes” value is “more than 25%”.
Turning to “DRVYVHPG [DVG, [Asp^1,Val^5, Gly^8]-AngII]”, the EC50 at AT1R [1] (FIG. 6B, 30 min, read-out: potency to promote AT1R internalization) came to 75 nM. Moreover, the “impact of Gq inhibition on ligand-mediated Rho activation” value on AT1R [2] (100 nM Ubo-Qic 30 min, ligand 4 min) was “did not affect”. The “time to maximal AT1R internalization into endosomes” value at AT1R [3] (100 nM SI or 1 μM DVG) was 10 min. Besides, the “less efficacious than AngII at promoting AT1R concentration in early endosomes” value on AT1R [3] (100 nM SI or 1 μM DVG vs 100 nM AngII) is recorded as 40%. Moreover, the “receptor accumulation in endosomes, compared to AngII” value at AT1R [3] (40 min) is reported as “promoted less receptor accumulation in endosomes”.
